Experimental data: publication PMC9585585, “Discovery of Small-Molecule Allosteric Inhibitors of PfATC as Antimalarials” (Journal of the American Chemical Society, 2022)
Read-outs that look alike come from different tables or passages of the source.

How the values were obtained:
PfATC = PfATC (Plasmodium falciparum, UniProt A0A5K1K910); experiment: biochemical
Method: Following washing with Lysis buffer
Excess imidazole was removed and the His-tag was cleaved
400Then, the sample was loaded onto a 5 ml HiTrap SP HP column (GE Healthcare, USA) and
410PfATC activity assay. Enzymatic reactions were performed in a total volume of 150 µL in 50 mM
Small-molecule dose-response curves were
The reactions were initiated by adding CP and quenched after 10 min with
After plates were sealed with transparent sealing
(§1) 420tape to prevent evaporation and incubated overnight in the dark place at room temperature. After
Analyses were performed using
The enzymatic assay was performed as described herein above for
Briefly, the reaction was carried out at room
The reaction was initiated by
Then the plate was covered by sealing
(§2) 430tape and kept in dark place at room temperature and then heated to 95 °C for 15min in dark and kept

HsATC = target: T1, HsATC (Homo sapiens, UniProt P27708); experiment: HsATC activity assay; type: biochemical; conditions: in vitro activity assay, 10 mM L-aspartate, 5 mM carbamoyl phosphate; read-out: HsATC IC50
T1 construct: ATCase domain of CAD; made in house; host or cells: E. coli BL21 star
T1 sequence (P27708 1918-2225 limits assumed): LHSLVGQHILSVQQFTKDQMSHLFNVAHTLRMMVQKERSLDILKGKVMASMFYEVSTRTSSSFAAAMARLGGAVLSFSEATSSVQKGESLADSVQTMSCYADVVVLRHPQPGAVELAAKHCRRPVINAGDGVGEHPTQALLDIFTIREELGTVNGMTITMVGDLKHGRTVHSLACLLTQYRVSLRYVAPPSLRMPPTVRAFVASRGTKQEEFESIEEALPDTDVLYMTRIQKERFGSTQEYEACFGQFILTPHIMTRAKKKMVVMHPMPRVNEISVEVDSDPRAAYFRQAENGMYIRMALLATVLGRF
Method: 417100μL of stop mix (two volumes of Antipyrine (26.5 mM 2,3-Dimethyl-1-phenyl-3-pyrazolin-5-
418one in 50% (v/v) sulfuric acid) and one volume of 2,3-Butanedione monoxime (80 mM 2,3-
419Butanedione monoxime in 5% (v/v) acetic acid). After plates were sealed with transparent sealing
as §1
421incubation, the plates were heated at 95 °C for 15 min in dark place, and kept for 30 min before
422measuring at 466 nm suing a Synergy H1 Hybrid Reader (BioTek). Analyses were performed using
423Microsoft Excel and Graph Pad Prism.
424HsATC activity assay. The enzymatic assay was performed as described herein above for
425enzymatic assay of PfATC with minor modifications. Briefly, the reaction was carried out at room
426temperature in a total volume of 150 μl of 10 mM L-aspartate and 5 mM carbamoyl phosphate
427saturated substrate solution in 50 mM Tris-Acetate buffer pH 8.3. hsATC was pre-incubated with
428inhibitor and L-Asp for 10 min at room temperature on a shaker. The reaction was initiated by
429adding CP and stopped after 5 min with […] color mix. Then the plate was covered by sealing
as §2
431the plate in the dark for another 30 min before measuring the absorbance at 466 nm suing a Synergy
432H1 Hybrid Reader (BioTek). […]

[1] = in vitro activity assay, PfATC 50 nM, 2 mM CP, 1 mM aspartate, read-out: PfATC IC50
[2] = in vitro enzyme assay, PfATC 50 nM, n = 3, read-out: IC50 against PfATC

PfATC, sequence (A0A5K1K910 entry or part of it): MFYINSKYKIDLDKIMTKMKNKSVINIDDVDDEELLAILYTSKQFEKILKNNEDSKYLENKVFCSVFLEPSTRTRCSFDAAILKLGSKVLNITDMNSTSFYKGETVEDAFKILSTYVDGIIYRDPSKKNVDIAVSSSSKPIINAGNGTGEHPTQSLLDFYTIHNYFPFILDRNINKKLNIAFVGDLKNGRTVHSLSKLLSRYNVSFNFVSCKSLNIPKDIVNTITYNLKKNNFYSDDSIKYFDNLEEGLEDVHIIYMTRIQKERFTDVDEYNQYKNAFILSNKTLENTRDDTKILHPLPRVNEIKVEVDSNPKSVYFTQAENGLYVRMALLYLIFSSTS

Row | Compound | IC50 (PfATC; [1]) | IC50 (HsATC) | IC50 (PfATC) | IC50 (PfATC; [2])
1 | COC(=O)c1cc(-c2ccccc2)sc1N [BDA-01] | 1.27 µM | 1.54 µM |  | 
2 | COC(=O)c1cc(-c2ccccc2)sc1NC(=O)OC(C)(C)C [BDA-02] | 1.47 µM | 1.5 µM |  | 
3 | CC(C)(C)OC(=O)Nc1sc(-c2ccccc2)cc1C(=O)O [BDA-03] | 1 µM | 1.63 µM |  | 
4 | Nc1sc(-c2ccccc2)cc1C(=O)NCCc1ccccc1 [BDA-05] | 1.27 µM | 0.765 µM |  | 
5 | CC(C)(C)OC(=O)Nc1sc(-c2ccccc2)cc1C(=O)NCCc1ccc(S(N)(=O)=O)cc1 [BDA-06] | 1.87 µM | 0.287 µM |  | 
6 | Nc1sc(-c2ccccc2)cc1C(=O)NCCc1ccc(S(N)(=O)=O)cc1 [BDA-07] | 0.997 µM | 0.116 µM |  | 
7 | O=C(Cc1c[nH]c2ccccc12)Nc1sc(-c2ccccc2)cc1C(=O)NCCc1ccccc1 [BDA-08] | 14.7 µM |  |  | 
8 | CC(C)(C)OC(=O)NCC1CCN(C(=O)c2cc(-c3ccccc3)sc2NC(=O)OC(C)(C)C)CC1 [BDA-09] | 0.241 µM | 0.196 µM |  | 
9 | CC(C)(C)OC(=O)Nc1sc(-c2ccccc2)cc1C(=O)N1CCN(c2ccc(F)cc2)CC1 [BDA-10] | 5.08 µM | 0.298 µM |  | 
10 | CC(C)CCNc1sc(-c2ccccc2)cc1C(=O)NCCc1ccccc1 [BDA-12] | 0.159 µM | 0.655 µM |  | 
11 | O=C(NCCc1ccccc1)c1cc(-c2ccccc2)sc1NCc1ncc[nH]1 [BDA-13] | 0.639 µM | 0.268 µM |  | 
12 | CC(C)(C)OC(=O)NCC(=O)Nc1sc(-c2ccccc2)cc1C(=O)NCCc1ccc(O)cc1 [BDA-17] | 1.15 µM | 0.308 µM |  | 
13 | CC(C)(C)OC(=O)Nc1sc(-c2ccccc2)cc1C(=O)NCCC1=CCCCC1 [BDA-20] | 6.31 µM | 2 µM |  | 
14 | Cc1ccc(CCNC(=O)c2cc(-c3ccccc3)sc2NC(=O)OC(C)(C)C)cc1 [BDA-23] | 0.409 µM | 0.756 µM |  | 
15 | CC(C)(C)OC(=O)Nc1sc(-c2ccccc2)cc1C(=O)NCCc1ccc(O)c(O)c1 [BDA-25] | 0.181 µM | 0.403 µM |  | 
16 | CC(C)(C)OC(=O)Nc1sc(-c2ccccc2)cc1C(=O)NCCCc1ccccc1 [BDA-26] | 0.576 µM | 0.555 µM |  | 
17 | CC(C)(C)OC(=O)Nc1sc(-c2ccccc2)cc1C(=O)NCC(=O)c1ccccc1 [BDA-27] | 1.23 µM | 0.369 µM |  | 
18 | CC(C)(C)OC(=O)Nc1sc(-c2ccccc2)cc1C(=O)NCCc1ccc(F)cc1 [BDA-28] | 1.63 µM | 0.391 µM |  | 
19 | COc1ccc(CCNC(=O)c2cc(-c3ccccc3)sc2NC(=O)OC(C)(C)C)cc1 [BDA-29] | 1.62 µM | 0.585 µM |  | 
20 | CC(C)(C)OC(=O)Nc1sc(-c2ccccc2)cc1C(=O)NCc1ccc(O)cc1 [BDA-30] | 2.62 µM | 0.397 µM |  | 
21 | CC(C)(C)OC(=O)Nc1sc(-c2ccccc2)cc1C(=O)Nc1ccccc1 [BDA-31] | 1.05 µM | 0.332 µM |  | 
22 | CC(C)(C)OC(=O)Nc1sc(Br)cc1C(=O)NCCc1ccc(O)cc1 [BDA-32] | 2.76 µM | 0.641 µM |  | 
23 | CC(C)(C)OC(=O)Nc1sc(-c2ccc3c(c2)OCCO3)cc1C(=O)NCCc1ccc(O)cc1 [BDA-33] | 0.516 µM | 0.101 µM |  | 
24 | CC(C)(C)OC(=O)Nc1sc(-c2ccccc2)cc1C(=O)NCc1ccccc1 [BDA-34] | 0.849 µM | 0.212 µM |  | 
25 | CC(C)(C)OC(=O)Nc1sc(-c2cnc(N)nc2)cc1C(=O)NCCc1ccc(O)cc1 [BDA-35] | 2.08 µM | 0.234 µM |  | 
26 | CC(C)(C)OC(=O)Nc1sc2c(c1C(=O)NCCc1ccc(O)cc1)CCN(Cc1ccccc1)C2 [BDA-36] |  | 3.84 µM |  | 

Row | Compound | IC50 (PfATC; [1]) | IC50 (HsATC) | IC50 (PfATC) | IC50 (PfATC; [2])
27 | CC(C)(C)OC(=O)Nc1sc(-c2ccccc2)cc1C(=O)Nc1ccc(N2CCOCC2)c(F)c1 [BDA-37] | 1.08 µM | 0.349 µM |  | 
28 | CC(C)(C)OC(=O)Nc1sc(-c2ccccc2)cc1C(=O)NC1CCN(Cc2ccccc2)CC1 [BDA-38] | 0.805 µM | 0.185 µM |  | 
29 | CC(C)(C)OC(=O)Nc1sc(-c2ccccc2)cc1C(=O)NCC(c1ccccc1)c1ccccc1 [BDA-39] | 5.65 µM | 15.4 µM |  | 
30 | CC(C)(C)OC(=O)Nc1sc(-c2cncc(Cl)c2)cc1C(=O)NCCc1ccc(O)cc1 [BDA-40] |  | 11.4 µM |  | 
31 | CC(C)(C)OC(=O)Nc1sc(-c2ccc3c(c2)OCO3)cc1C(=O)NCCc1ccc(O)cc1 [BDA-41] | 0.673 µM | 0.0289 µM |  | 
32 | CC(C)(C)OC(=O)Nc1sc2c(c1C(=O)NCCc1ccc(O)cc1)CCC(c1ccccc1)C2 (stereo not drawn) [BDA-42] | 12.2 µM | 2.42 µM |  | 
33 | CC(C)(C)OC(=O)Nc1sc2c(c1C(=O)NCCc1ccc(O)cc1)CCCC2 [BDA-43] | 18.4 µM | 2.09 µM |  | 
34 | CC(C)(C)OC(=O)Nc1oc(-c2ccc(Cl)cc2)cc1C(=O)NCCc1ccc(O)cc1 [BDA-44] | 6.11 µM | 0.83 µM |  | 
35 | CC(C)(C)OC(=O)Nc1sc(-c2ccc(C=O)cc2)cc1C(=O)NCCc1ccc(O)cc1 [BDA-45] | 3.77 µM | 0.124 µM |  | 
36 | Nc1sc(-c2ccccc2)cc1C(=O)NCCc1ccc(F)cc1 [BDA-46] | 1.64 µM | 0.741 µM |  | 
37 | CC(C)(C)OC(=O)Nc1sc(-c2cccc(N3CCOCC3)c2)cc1C(=O)NCCc1ccc(O)cc1 [BDA-47] | 1.53 µM | 0.238 µM |  | 
38 | CC(C)(C)OC(=O)Nc1sc(-c2cccc(C=O)c2)cc1C(=O)NCCc1ccc(O)cc1 [BDA-48] | 1.67 µM | 0.125 µM |  | 
39 | Cc1c(-c2ccccc2)sc(NC(=O)OC(C)(C)C)c1C(=O)NCCc1ccc(O)cc1 [BDA-49] | 5.94 µM | 0.729 µM |  | 
40 | Nc1sc(-c2ccccc2)cc1C(=O)NCCc1ccc(O)cc1 [BDA-50] | 1.14 µM | 0.36 µM |  | 
41 | CC(C)(C)OC(=O)Nc1sc(-c2cccc(N)c2)cc1C(=O)NCCc1ccc(O)cc1 [BDA-51] | 1.24 µM | 0.226 µM |  | 
42 | Cc1ccc(-c2cc(C(=O)NCCc3ccc(O)cc3)c(NC(=O)OC(C)(C)C)s2)cc1 [BDA-52] | 0.558 µM | 0.119 µM |  | 
43 | CC(C)(C)OC(=O)Nc1sc(-c2cccc(C#N)c2)cc1C(=O)NCCc1ccc(O)cc1 [BDA-53] | 2.72 µM | 0.383 µM |  | 
44 | CC(C)(C)OC(=O)Nc1sc(-c2ccc(F)cc2)cc1C(=O)NCCc1ccc(O)cc1 [BDA-54] | 0.845 µM | 0.158 µM |  | 
45 | CC(C)(C)OC(=O)Nc1sc(-c2ccc(Cl)c(Cl)c2)cc1C(=O)NCCc1ccc(O)cc1 [BDA-56] | 2.22 µM | 0.556 µM |  | 
46 | COC(=O)c1c(N)sc2c1CCN(Cc1ccccc1)C2 [BDA-68] |  | 58.3 µM |  | 
47 | COCCNC(=O)c1cc(-c2ccccc2)sc1N [compound 1] |  |  | 1.59 µM | 
48 | C#CCNC(=O)c1cc(-c2ccccc2)sc1N [compound 2] |  |  |  | 4.91 µM
49 | C=CCNC(=O)c1cc(-c2ccccc2)sc1N [compound 3] |  |  |  | 4.61 µM
50 | CCCCNC(=O)c1cc(-c2ccccc2)sc1N [compound 4] |  |  |  | 3.32 µM
51 | CCCNC(=O)c1cc(-c2ccccc2)sc1N [compound 5] |  |  |  | 5.69 µM
